Here are results for two compounds from PMC11167047 (Cell Death Discovery, 2024).

What all share (test): kinome screen (33PanQinase)
What all share (format): biochemical

For one experiment, the target named is T1, S6Kbeta (Homo sapiens, UniProt Q9UBS0).
T1 construct: purchased Reaction Biology Europe GmbH (formerly ProQinase)
How it is done:
(§1) The Kinome Screening was performed by Reaction Biology Europe GmbH (http://reactionbiology.com; Freiburg i. Br., Germany).

The target of a further experiment is T2, p38γ (Homo sapiens, UniProt P53778).
T2 construct: purchased Reaction Biology Europe GmbH (formerly ProQinase)
T2 sequence (P53778 1-367): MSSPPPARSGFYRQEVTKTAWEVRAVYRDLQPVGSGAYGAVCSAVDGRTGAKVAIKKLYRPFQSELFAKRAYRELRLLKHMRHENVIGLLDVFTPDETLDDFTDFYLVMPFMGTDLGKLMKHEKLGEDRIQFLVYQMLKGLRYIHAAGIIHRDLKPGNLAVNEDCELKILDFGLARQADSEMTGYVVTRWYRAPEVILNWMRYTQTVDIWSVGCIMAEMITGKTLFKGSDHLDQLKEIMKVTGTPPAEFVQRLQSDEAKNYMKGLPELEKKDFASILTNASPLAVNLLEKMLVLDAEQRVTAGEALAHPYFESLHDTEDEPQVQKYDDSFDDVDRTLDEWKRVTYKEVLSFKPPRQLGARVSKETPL
How it is done:
as §1

The target of another experiment is T3, DYRK2 (Homo sapiens, UniProt Q92630).
T3 construct: purchased Reaction Biology Europe GmbH (formerly ProQinase)
T3 sequence (Q92630 1-601): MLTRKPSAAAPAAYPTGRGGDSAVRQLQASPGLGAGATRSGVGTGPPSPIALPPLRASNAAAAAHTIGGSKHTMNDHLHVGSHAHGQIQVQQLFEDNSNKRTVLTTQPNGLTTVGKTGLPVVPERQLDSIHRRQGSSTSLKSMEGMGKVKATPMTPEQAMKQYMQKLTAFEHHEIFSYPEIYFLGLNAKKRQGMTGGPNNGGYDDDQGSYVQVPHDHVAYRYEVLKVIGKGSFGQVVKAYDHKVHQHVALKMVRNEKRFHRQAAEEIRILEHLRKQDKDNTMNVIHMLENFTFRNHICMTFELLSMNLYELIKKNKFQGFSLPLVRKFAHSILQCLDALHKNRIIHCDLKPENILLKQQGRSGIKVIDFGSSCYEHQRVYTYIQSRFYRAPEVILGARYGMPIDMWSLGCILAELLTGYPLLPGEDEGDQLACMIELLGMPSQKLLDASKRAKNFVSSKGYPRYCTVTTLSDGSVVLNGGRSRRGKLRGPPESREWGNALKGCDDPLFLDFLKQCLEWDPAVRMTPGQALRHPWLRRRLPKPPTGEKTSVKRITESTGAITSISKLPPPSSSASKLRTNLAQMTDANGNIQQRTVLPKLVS
How it is done:
as §1

Another experiment addresses T4, PKCβ2 (Homo sapiens, UniProt P05771).
T4 construct: purchased Reaction Biology Europe GmbH (formerly ProQinase)
As to the method:
as §1

In a further experiment the target is T5, RPS6KA2 (Homo sapiens, UniProt Q15349).
T5 construct: purchased Reaction Biology Europe GmbH (formerly ProQinase)
How it is done: as §1

A further experiment addresses T6, CDK12/CycK (Homo sapiens, UniProt Q9NYV4).
T6 construct: purchased Reaction Biology Europe GmbH (formerly ProQinase)
How it is done: as §1

For the next experiment, the target named is T7, TSK2 (Homo sapiens, UniProt Q96PF2).
T7 construct: purchased Reaction Biology Europe GmbH (formerly ProQinase)
T7 sequence (Q96PF2 1-358): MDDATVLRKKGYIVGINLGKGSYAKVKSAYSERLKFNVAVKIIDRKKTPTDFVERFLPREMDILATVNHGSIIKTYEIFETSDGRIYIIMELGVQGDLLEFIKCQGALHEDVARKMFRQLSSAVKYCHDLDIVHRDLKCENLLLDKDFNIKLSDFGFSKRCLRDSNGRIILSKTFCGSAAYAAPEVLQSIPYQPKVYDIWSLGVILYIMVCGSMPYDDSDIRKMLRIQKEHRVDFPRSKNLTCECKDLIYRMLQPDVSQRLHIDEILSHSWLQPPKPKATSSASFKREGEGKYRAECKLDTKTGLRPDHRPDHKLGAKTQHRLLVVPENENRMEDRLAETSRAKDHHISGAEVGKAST
As to the method: as §1

In a further experiment the target is T8, LRRK2 (Homo sapiens, UniProt Q5S007).
T8 construct: purchased Reaction Biology Europe GmbH (formerly ProQinase)
As to the method: as §1

The next experiment deals with T9, PDGFRα (Homo sapiens, UniProt P16234).
T9 construct: purchased Reaction Biology Europe GmbH (formerly ProQinase)
How it is done: as §1

In a further experiment the target is T10, ACVRL1 (Homo sapiens, UniProt P37023).
T10 construct: purchased Reaction Biology Europe GmbH (formerly ProQinase)
How it is done:
as §1

T10 sequence (P37023 22-503): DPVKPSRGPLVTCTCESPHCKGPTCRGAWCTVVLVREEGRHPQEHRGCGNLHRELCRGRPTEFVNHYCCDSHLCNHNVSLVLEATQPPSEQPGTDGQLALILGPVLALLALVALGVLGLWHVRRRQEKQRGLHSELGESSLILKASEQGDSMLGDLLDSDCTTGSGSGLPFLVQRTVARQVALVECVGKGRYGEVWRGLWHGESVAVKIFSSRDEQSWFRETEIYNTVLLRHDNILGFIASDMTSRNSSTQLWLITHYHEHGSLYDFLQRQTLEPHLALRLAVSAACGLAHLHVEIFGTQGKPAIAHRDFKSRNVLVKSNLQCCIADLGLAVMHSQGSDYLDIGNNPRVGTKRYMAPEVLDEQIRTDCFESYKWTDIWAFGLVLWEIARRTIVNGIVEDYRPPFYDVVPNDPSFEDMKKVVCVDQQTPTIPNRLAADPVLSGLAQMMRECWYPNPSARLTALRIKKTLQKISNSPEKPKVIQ
T9 sequence (P16234 24-1089): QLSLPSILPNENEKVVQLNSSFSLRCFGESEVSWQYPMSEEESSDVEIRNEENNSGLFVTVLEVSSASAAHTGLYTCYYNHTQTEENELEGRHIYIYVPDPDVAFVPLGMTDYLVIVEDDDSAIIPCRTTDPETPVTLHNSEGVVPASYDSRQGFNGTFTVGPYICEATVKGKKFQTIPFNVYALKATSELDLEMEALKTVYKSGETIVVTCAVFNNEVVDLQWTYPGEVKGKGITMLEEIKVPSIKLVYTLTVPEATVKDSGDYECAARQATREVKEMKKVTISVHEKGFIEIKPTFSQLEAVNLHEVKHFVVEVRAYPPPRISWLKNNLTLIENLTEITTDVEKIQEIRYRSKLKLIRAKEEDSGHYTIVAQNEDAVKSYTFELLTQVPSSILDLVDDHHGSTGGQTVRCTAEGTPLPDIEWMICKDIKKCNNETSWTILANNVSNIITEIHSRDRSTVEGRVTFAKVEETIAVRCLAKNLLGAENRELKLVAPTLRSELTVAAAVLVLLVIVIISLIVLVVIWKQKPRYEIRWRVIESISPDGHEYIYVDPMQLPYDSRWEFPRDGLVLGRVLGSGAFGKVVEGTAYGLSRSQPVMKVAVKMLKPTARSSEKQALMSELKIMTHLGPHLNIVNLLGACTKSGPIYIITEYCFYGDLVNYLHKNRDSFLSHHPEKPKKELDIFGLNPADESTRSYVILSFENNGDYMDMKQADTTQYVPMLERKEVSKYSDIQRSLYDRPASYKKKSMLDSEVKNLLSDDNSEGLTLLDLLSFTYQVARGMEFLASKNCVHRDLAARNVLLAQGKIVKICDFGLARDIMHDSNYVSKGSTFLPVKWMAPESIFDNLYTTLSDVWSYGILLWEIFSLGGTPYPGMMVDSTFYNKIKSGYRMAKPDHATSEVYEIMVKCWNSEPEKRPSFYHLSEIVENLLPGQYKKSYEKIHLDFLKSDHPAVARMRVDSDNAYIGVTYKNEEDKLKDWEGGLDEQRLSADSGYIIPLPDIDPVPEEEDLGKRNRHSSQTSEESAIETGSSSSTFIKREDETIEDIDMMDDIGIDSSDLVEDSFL
T5 sequence (Q15349 whole entry): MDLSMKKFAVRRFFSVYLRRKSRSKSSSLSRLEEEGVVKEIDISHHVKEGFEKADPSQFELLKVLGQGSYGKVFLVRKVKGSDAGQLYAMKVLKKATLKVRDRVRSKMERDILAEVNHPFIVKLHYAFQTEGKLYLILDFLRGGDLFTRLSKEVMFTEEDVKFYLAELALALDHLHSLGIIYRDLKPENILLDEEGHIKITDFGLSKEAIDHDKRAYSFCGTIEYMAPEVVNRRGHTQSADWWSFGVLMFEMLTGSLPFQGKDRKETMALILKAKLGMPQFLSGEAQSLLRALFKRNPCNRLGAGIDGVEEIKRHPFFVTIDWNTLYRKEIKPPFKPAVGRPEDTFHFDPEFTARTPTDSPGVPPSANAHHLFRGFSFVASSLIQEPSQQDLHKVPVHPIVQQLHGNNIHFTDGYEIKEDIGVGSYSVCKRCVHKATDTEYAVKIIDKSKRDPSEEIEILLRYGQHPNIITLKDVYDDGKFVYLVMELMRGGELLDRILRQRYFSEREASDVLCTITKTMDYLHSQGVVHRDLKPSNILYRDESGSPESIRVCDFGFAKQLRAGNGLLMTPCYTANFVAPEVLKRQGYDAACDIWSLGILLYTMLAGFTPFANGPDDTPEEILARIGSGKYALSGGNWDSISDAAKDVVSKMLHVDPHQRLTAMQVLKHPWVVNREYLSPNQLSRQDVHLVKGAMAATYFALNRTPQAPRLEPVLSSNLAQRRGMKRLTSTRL
T6 sequence (Q9NYV4 whole entry): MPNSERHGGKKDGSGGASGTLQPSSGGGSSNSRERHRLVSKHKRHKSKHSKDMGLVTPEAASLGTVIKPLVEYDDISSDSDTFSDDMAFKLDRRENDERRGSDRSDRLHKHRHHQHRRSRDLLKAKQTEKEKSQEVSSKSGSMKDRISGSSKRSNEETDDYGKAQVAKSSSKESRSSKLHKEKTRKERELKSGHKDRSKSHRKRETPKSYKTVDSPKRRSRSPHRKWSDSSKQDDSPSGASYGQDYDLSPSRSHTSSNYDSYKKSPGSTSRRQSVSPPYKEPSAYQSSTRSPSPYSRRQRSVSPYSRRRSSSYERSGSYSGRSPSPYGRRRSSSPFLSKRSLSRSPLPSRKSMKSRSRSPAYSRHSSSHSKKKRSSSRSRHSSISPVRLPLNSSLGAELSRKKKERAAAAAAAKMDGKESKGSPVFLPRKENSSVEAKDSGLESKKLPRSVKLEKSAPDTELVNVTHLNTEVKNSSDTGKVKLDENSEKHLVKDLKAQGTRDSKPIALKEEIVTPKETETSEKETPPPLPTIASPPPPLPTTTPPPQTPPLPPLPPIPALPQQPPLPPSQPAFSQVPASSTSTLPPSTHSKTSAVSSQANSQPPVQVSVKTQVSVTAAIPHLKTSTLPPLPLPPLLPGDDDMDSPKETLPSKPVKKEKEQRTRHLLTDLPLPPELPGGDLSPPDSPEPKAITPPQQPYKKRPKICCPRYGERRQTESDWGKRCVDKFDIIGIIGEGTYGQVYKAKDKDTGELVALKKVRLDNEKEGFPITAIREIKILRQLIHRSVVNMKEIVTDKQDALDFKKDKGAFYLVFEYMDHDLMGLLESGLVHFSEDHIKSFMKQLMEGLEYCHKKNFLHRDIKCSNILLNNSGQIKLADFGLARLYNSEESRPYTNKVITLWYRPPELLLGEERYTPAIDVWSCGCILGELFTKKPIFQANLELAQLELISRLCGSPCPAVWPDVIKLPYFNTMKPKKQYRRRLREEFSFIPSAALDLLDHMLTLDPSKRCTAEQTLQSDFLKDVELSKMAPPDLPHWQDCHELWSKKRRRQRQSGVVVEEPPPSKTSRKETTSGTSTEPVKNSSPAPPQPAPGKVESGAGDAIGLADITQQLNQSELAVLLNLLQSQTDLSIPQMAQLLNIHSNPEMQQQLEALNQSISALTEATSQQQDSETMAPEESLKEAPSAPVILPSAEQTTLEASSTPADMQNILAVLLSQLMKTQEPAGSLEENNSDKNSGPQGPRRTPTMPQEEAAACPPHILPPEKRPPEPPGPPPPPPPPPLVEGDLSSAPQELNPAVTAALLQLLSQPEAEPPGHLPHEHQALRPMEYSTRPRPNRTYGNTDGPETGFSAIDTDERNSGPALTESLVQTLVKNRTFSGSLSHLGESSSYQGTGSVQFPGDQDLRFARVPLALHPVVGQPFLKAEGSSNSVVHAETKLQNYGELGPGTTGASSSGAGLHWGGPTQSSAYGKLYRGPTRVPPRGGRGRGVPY
T6 sequence (O75909 whole entry partner): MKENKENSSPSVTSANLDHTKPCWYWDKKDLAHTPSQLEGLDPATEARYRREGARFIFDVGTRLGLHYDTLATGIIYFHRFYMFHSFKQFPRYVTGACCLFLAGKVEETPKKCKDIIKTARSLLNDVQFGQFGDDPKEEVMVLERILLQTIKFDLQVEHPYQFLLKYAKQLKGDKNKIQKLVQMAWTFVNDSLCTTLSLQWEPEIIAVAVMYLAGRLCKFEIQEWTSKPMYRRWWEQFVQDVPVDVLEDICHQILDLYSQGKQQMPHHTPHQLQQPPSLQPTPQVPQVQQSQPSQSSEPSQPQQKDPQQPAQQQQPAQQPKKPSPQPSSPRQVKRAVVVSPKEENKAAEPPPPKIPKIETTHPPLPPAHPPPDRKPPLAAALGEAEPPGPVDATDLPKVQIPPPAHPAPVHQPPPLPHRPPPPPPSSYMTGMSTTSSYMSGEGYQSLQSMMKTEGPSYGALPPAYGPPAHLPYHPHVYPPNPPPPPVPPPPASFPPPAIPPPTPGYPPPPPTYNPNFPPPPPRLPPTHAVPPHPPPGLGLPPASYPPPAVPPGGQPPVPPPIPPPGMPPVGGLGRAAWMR
T4 sequence (P05771 1-673 isoform P05771-2): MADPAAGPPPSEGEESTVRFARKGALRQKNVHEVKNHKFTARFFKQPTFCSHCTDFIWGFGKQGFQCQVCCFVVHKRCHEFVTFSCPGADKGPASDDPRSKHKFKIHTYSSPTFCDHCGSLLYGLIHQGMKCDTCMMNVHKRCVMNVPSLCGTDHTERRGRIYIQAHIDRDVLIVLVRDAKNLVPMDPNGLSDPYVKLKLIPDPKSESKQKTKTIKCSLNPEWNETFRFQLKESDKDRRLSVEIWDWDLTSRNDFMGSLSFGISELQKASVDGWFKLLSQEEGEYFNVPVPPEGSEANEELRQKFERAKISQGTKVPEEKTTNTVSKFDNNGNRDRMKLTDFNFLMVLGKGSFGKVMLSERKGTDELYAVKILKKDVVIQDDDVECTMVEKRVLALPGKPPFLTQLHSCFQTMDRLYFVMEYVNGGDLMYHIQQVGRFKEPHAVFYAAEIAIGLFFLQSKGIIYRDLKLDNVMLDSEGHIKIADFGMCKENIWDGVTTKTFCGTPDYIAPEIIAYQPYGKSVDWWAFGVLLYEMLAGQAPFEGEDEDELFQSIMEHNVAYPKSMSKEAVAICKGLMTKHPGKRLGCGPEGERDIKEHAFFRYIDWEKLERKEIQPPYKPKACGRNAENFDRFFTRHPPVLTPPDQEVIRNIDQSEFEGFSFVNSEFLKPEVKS

Regarding `c1ccc(CNc2cc(-c3c[nH]c4ncccc34)ccn2)cc1` [meriolin 36], the residual kinase activity is given as 87 % of control on S6Kbeta (0.3 µM); 67 % of control on S6Kbeta (3 µM); 64 % of control on p38γ (0.3 µM); 19 % of control on p38γ (3 µM); 31 % of control on DYRK2 (0.3 µM); 4 % of control on DYRK2 (3 µM). Moreover, the residual kinase activity at PKCβ2 (0.3 µM) was 51 % of control; on PKCβ2 (3 µM), 11 % of control; at RPS6KA2 (0.3 µM), 6 % of control; at RPS6KA2 (3 µM), 0 % of control; on CDK12/CycK (0.3 µM), 1 % of control; on CDK12/CycK (3 µM) it was 2 % of control. In addition, the residual kinase activity on TSK2 (0.3 µM) is recorded as 103 % of control; on TSK2 (3 µM), 94 % of control; at LRRK2 (0.3 µM), 1 % of control; on LRRK2 (3 µM), 1 % of control; on PDGFRα (0.3 µM), 25 % of control; at PDGFRα (3 µM) it was 8 % of control. Besides, the values for the residual kinase activity on ACVRL1 (0.3 µM) and on ACVRL1 (3 µM) were 43 % of control and 9 % of control, respectively.
For the compound `COc1ccnc2[nH]cc(-c3cc(N)nc(N)c3)c12` [meriolin 16], the residual kinase activity at S6Kbeta (0.03 µM) is on record as 89 % of control; on S6Kbeta (0.3 µM) it was 103 % of control; on p38γ (0.03 µM), 56 % of control; at p38γ (0.3 µM), 8 % of control; at DYRK2 (0.03 µM), 6 % of control; on DYRK2 (0.3 µM), 1 % of control. Besides, the residual kinase activity on PKCβ2 (0.03 µM) is recorded as 106 % of control; at PKCβ2 (0.3 µM), 71 % of control; at RPS6KA2 (0.03 µM), 87 % of control; at RPS6KA2 (0.3 µM) it was 34 % of control; on CDK12/CycK (0.03 µM), 21 % of control; at CDK12/CycK (0.3 µM), 1 % of control. The residual kinase activity was 107 % of control on TSK2 (0.03 µM); 92 % of control on TSK2 (0.3 µM); 50 % of control on LRRK2 (0.03 µM); 8 % of control at LRRK2 (0.3 µM); 89 % of control on PDGFRα (0.03 µM); 60 % of control on PDGFRα (0.3 µM). In addition, the residual kinase activity at ACVRL1 (0.03 µM) is 101 % of control; at ACVRL1 (0.3 µM), 89 % of control.
